# pIC50: −log10 of the molar value. Where no end group is shown, it is not given here.
# Target: DR4 (DRB1*0401) (Homo sapiens, UniProt P01903+P01911, A100K/A169T/F76Y/I96L/K127E/L162R/M171V/N62H/P40V/Q125Y/R42H/S133A/S149N/S66Y/V115G/V209L/W38E)
# Assay: Peptide HLA-DR binding assay (semi-quantitative competition with biotinylated marker peptide)
# Conditions: read-out: DRB1*0401 ^eIC50
# Experimental: Two EBV-transformed B-cell lines, BSM (typed as DR4 [DRB1*0401] and BM92 (typed as DR4 [DRB1*0404) were provided by Dr. M. Oudshoom from the Academic Hospital Leiden, the Netherlands. The cells were cultured in Dulbecco's modified eagles minimal essential medium DMEM/HAM's F12 (Gibco Laboratories, Grand Island, NY) supplemented with 10% FCS (Hyclone Laboratories), 1% non-essential amino acids (ICI), L-glutamine, 2-ME and antibiotics. Cells were routinely passaged every 2-3 days in a 1:2 ratio. Cells were harvested and thereafter washed three times in phosphate buffer saline (PBS) (4°C) containing 1 mM PMSF. Cell pellets were stored at -70°C until use. HLA-DR expressing cells were thawed and lysed on ice for 30 minutes in PBS, 1% NP-40, 1 mM AEBSF (Calbiochem). The lysate was cleared of nuclei and debris by centrifugation at 15.000 rpm (Sorvall, SS34 rotor) for 30 minutes.
# HLA-DR molecules were affinity purified from cell lysates using monoclonal antibody L243 (ATCC), directed against a nonpolymorphic determinant on the DR-complex (Lampson et al., J. Immunol. 125:293, 1980). Protein G sepharose purified L243 was coupled to NHS-Sepharose 4 FF (Pharmacia) according to the manufactures instructions. The cleared cell-lysate was passed through a 0.45 µm filter and added to L243-NHS-sepharose beads. […] Collected fractions were analysed on SDS-PAGE under non-reducing conditions followed by silver staining. […]
# The peptide binding studies were performed using a semi-quantitative binding assay as described previously (Joosten et al., Int. Immunol. 6:751, 1994).
# After approximately 48 hours incubation at room temperature, bound and unbound marker peptides were separated by SDS-PAGE under non-reducing conditions. […] Biotinylated peptides were detected by enhanced chemoluminescence using a Westem Blot ECL kit (Amersham, U.K.) according to the manufactures instructions. […]
row,Sequence,pIC50
1,AGWLADRSVRYPI [HAG2],5.00 to 6.00
2,AGWLSDGSVQYPI [HCLP1],4.00 to 5.00
3,AGWLADGSLRYPI [HAG3],5.00 to 6.00

# Source: EP0833842B1, “NOVEL PEPTIDES FOR USE IN TREATMENT OF T-CELL MEDIATED CARTILAGE DESTRUCTION IN AUTOIMMUNE DISEASES” (Akzo Nobel N.V., priority 1995, dated 1999)
